“And” between values parts separate entries of the source, which are not always exact repeats. Equal values may be shown once. Toxic doses and inconclusive results are not listed. How the source made its calls: active means survival T/C of 150% or more; inactive means T/C below 125% in these data.
Test system: P388 leukemia ip, CD2F1 mice, survival T/C
Test: NCI In Vivo Anticancer Drug Screen. Data for tumor model P388 Leukemia (intraperitoneal) in CD2F1 (CDF1) mice
Conditions: endpoint: median survival time, higher = longer survival
In short: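 Mice carrying the transplanted tumor received test compound or vehicle. Survival was recorded in each group, and the value is the treated-group measurement divided by that of the vehicle-treated control group.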

[1] = dose: 50.0 mg/kg/injection, schedule: Q01DX005 (ip), vehicle: saline with Tween-80
[2] = dose: 100.0 mg/kg/injection, schedule: Q01DX005 (ip), vehicle: saline with Tween-80
[3] = dose: 50.0 mg/kg/injection, schedule: Q01DX009 (ip), vehicle: Klucel (hydroxypropylcellulose) (HPC)
[4] = dose: 100.0 mg/kg/injection, schedule: Q01DX009 (ip), vehicle: Klucel (hydroxypropylcellulose) (HPC)
[5] = dose: 200.0 mg/kg/injection, schedule: Q01DX009 (ip), vehicle: Klucel (hydroxypropylcellulose) (HPC)
[6] = dose: 100.0 mg/kg/injection, schedule: Q01DX009 (ip), vehicle: saline with Tween-80
[7] = dose: 50.0 mg/kg/injection, schedule: Q01DX005 (ip), vehicle: Klucel (hydroxypropylcellulose) (HPC)
[8] = dose: 100.0 mg/kg/injection, schedule: Q01DX005 (ip), vehicle: Klucel (hydroxypropylcellulose) (HPC)
[9] = dose: 60.0 mg/kg/injection, schedule: Q01DX005 (ip), vehicle: saline with Tween-80
[10] = dose: 120.0 mg/kg/injection, schedule: Q01DX005 (ip), vehicle: saline with Tween-80
[11] = dose: 240.0 mg/kg/injection, schedule: Q01DX005 (ip), vehicle: saline with Tween-80

Measured: T/C

CC1=CP(=O)(c2ccccc2)CC1 (centres undefined) (tested in a mixture with another compound)
inactive: dose: 60.0 mg/kg/injection, schedule: Q01DX005 (ip), vehicle: saline 93 % of control | dose: 120.0 mg/kg/injection, schedule: Q01DX005 (ip), vehicle: saline 99 % of control | dose: 240.0 mg/kg/injection, schedule: Q01DX005 (ip), vehicle: saline 102 % of control

C=C(C)C(=O)OC1CCC2Cc3occ(C)c3C(OC(=O)C(=C)C)C2(C)C1C (centres undefined)
inactive: dose: 20.0 mg/kg/injection, schedule: Q01DX009 (ip), vehicle: saline with Tween-80 93 % of control | dose: 40.0 mg/kg/injection, schedule: Q01DX009 (ip), vehicle: saline with Tween-80 102 % of control | dose: 80.0 mg/kg/injection, schedule: Q01DX009 (ip), vehicle: saline with Tween-80 93 % of control | dose: 160.0 mg/kg/injection, schedule: Q01DX009 (ip), vehicle: saline with Tween-80 93 % of control

NC(N)=Nc1ccc(C(=O)Oc2ccc([N+](=O)[O-])cc2)cc1
inactive: dose: 100.0 mg/kg/injection, schedule: Q04DX003 (ip), vehicle: saline with Tween-80 104 % of control | dose: 200.0 mg/kg/injection, schedule: Q04DX003 (ip), vehicle: saline with Tween-80 100 % of control | dose: 400.0 mg/kg/injection, schedule: Q04DX003 (ip), vehicle: saline with Tween-80 95 % of control

CC1CC2(CC(COc3ccccc3C(N)=O)OC2=O)C(=O)O1 (centres undefined)
inactive: [1] 100 % of control | [2] 100 % of control | dose: 200.0 mg/kg/injection, schedule: Q01DX005 (ip), vehicle: saline with Tween-80 97 % of control

C=CCCCCCCCCC(=O)N1C(=O)C(c2ccccc2)(c2ccccc2)CSC1=S
inactive: [3] 91 % of control | [4] 92 % of control | [5] 90 % of control

COc1ccccc1N=Nc1cccc[c]1[Hg][Cl]
inactive: dose: 9.0 mg/kg/injection, schedule: Q01DX009 (ip), vehicle: saline 107 % of control and 113 % of control and 118 % of control | dose: 18.0 mg/kg/injection, schedule: Q01DX009 (ip), vehicle: saline 114 % of control and 119 % of control | dose: 36.0 mg/kg/injection, schedule: Q01DX009 (ip), vehicle: saline 102 % of control and 113 % of control

CC1C(=O)C2(C(=O)O)CC1CCC2C12C=CC(=O)C(C)(C)C1C(=O)OC2 (centres undefined)
inactive: dose: 50.0 mg/kg/injection, schedule: Q04DX002 (ip), vehicle: saline with Tween-80 100 % of control | dose: 100.0 mg/kg/injection, schedule: Q04DX002 (ip), vehicle: saline with Tween-80 95 % of control | dose: 200.0 mg/kg/injection, schedule: Q04DX002 (ip), vehicle: saline with Tween-80 91 % of control

CN(C)Cc1c(/C=C/C2=[N+](C)c3ccccc3C2(C)C)[nH]c2ccccc12
inactive: [3] 110 % of control | [4] 107 % of control | [5] 110 % of control

Cc1cc2nc3ccc(O)cc3[n+](C)c2cc1N
inactive: dose: 12.5 mg/kg/injection, schedule: Q01DX009 (ip), vehicle: saline 98 % of control and 103 % of control | dose: 25.0 mg/kg/injection, schedule: Q01DX009 (ip), vehicle: saline 100 % of control and 106 % of control | dose: 50.0 mg/kg/injection, schedule: Q01DX009 (ip), vehicle: saline 96 % of control and 97 % of control | dose: 100.0 mg/kg/injection, schedule: Q01DX009 (ip), vehicle: saline 99 % of control and 96 % of control

CCOc1ccc(Br)cc1/C=N/NS(=O)(=O)c1ccc(C)cc1
inactive: [6] 123 % of control

CCCC(Sc1ccccc1)c1cc(OC)ccc1NC(C)=O (centres undefined)
inactive: dose: 100.0 mg/kg/injection, schedule: Q01DX001 (ip), vehicle: saline with Tween-80 100 % of control | dose: 200.0 mg/kg/injection, schedule: Q01DX001 (ip), vehicle: saline with Tween-80 100 % of control | dose: 400.0 mg/kg/injection, schedule: Q01DX001 (ip), vehicle: saline with Tween-80 93 % of control

O=C(c1ccc([N+](=O)[O-])cc1)C(Br)C(Br)c1ccncc1 (centres undefined)
inactive: dose: 25.0 mg/kg/injection, schedule: Q01DX009 (ip), vehicle: other 110 % of control | dose: 50.0 mg/kg/injection, schedule: Q01DX009 (ip), vehicle: other 104 % of control | dose: 100.0 mg/kg/injection, schedule: Q01DX009 (ip), vehicle: other 106 % of control | dose: 200.0 mg/kg/injection, schedule: Q01DX009 (ip), vehicle: other 103 % of control

C1=C(CC[Si]23OCCN(CCO2)CCO3)CCCC1
inactive: [7] 110 % of control | [8] 103 % of control | dose: 200.0 mg/kg/injection, schedule: Q01DX005 (ip), vehicle: Klucel (hydroxypropylcellulose) (HPC) 103 % of control

C[CH2][Ge]([Cl])([Cl])[CH2]C
inactive: [7] 91 % of control | [8] 87 % of control

N=C(N)n1ncc2c1CCCC2=O
inactive: [9] 100 % of control | [10] 105 % of control | [11] 96 % of control

CC1(C)S[C@@H]2C(Cl)=C(Cl)C(=O)N2[C@H]1C(=O)O
inactive: [1] 91 % of control | [2] 91 % of control

COc1ccc2sc3c(C)ccc(NCCCC4CCCN5CCCCC45)c3c(=O)c2c1 (centres undefined)
inactive: dose: 6.25 mg/kg/injection, schedule: Q01DX005 (ip), vehicle: saline with Tween-80 94 % of control | dose: 12.5 mg/kg/injection, schedule: Q01DX005 (ip), vehicle: saline with Tween-80 92 % of control | dose: 25.0 mg/kg/injection, schedule: Q01DX005 (ip), vehicle: saline with Tween-80 89 % of control

CC(C)C1OCN2C(C)CCCC12 (centres undefined)
inactive: dose: 50.0 mg/kg/injection, schedule: Q01DX005 (ip), vehicle: saline 105 % of control | dose: 100.0 mg/kg/injection, schedule: Q01DX005 (ip), vehicle: saline 111 % of control | dose: 200.0 mg/kg/injection, schedule: Q01DX005 (ip), vehicle: saline 111 % of control

O=C1NC(CN2CCCC(O)C2)C(=O)NC1CN1CCCC(O)C1 (centres undefined)
inactive: dose: 12.5 mg/kg/injection, schedule: Q01DX009 (ip), vehicle: water 110 % of control and 95 % of control | dose: 25.0 mg/kg/injection, schedule: Q01DX009 (ip), vehicle: water 96 % of control and 90 % of control | dose: 50.0 mg/kg/injection, schedule: Q01DX009 (ip), vehicle: water 96 % of control and 110 % of control | dose: 100.0 mg/kg/injection, schedule: Q01DX009 (ip), vehicle: water 122 % of control and 114 % of control | dose: 200.0 mg/kg/injection, schedule: Q01DX009 (ip), vehicle: water 116 % of control

CC(=O)OC1(CSc2ccccc2)CCCCC1
inactive: dose: 25.0 mg/kg/injection, schedule: Q01DX009 (ip), vehicle: saline with Tween-80 89 % of control | dose: 50.0 mg/kg/injection, schedule: Q01DX009 (ip), vehicle: saline with Tween-80 101 % of control and 102 % of control | [6] 104 % of control and 109 % of control | dose: 200.0 mg/kg/injection, schedule: Q01DX009 (ip), vehicle: saline with Tween-80 108 % of control and 111 % of control | dose: 400.0 mg/kg/injection, schedule: Q01DX009 (ip), vehicle: saline with Tween-80 111 % of control

CCOC(=O)C1=C(C)N(C)C(C)=C(C(=O)OCC)C1
inactive: [9] 108 % of control | [10] 100 % of control | [11] 101 % of control

CN(C)c1ccc(N=O)cc1
inactive: dose: 1.56 mg/kg/injection, schedule: Q01DX009 (ip), vehicle: saline 110 % of control | dose: 3.12 mg/kg/injection, schedule: Q01DX009 (ip), vehicle: saline 110 % of control | dose: 6.25 mg/kg/injection, schedule: Q01DX009 (ip), vehicle: saline 94 % of control

CC1=NNC(=O)/C1=C/c1ccccc1Cl
inactive: [3] 104 % of control | [4] 105 % of control | [5] 112 % of control | dose: 400.0 mg/kg/injection, schedule: Q01DX009 (ip), vehicle: Klucel (hydroxypropylcellulose) (HPC) 113 % of control

Cc1cccc(Cl)c1NC1=NCCN1C(=O)CC(=O)c1ccccc1
inactive: dose: 3.13 mg/kg/injection, schedule: Q01DX009 (ip), vehicle: Klucel (hydroxypropylcellulose) (HPC) 107 % of control | dose: 6.25 mg/kg/injection, schedule: Q01DX009 (ip), vehicle: Klucel (hydroxypropylcellulose) (HPC) 105 % of control | dose: 12.5 mg/kg/injection, schedule: Q01DX009 (ip), vehicle: Klucel (hydroxypropylcellulose) (HPC) 99 % of control and 100 % of control

O=C1c2ccccc2C(=O)N1C(=NC1CCCCC1)c1ccccc1
inactive: dose: 100.0 mg/kg/injection, schedule: Q04DX003 (ip), vehicle: Klucel (hydroxypropylcellulose) (HPC) 104 % of control | dose: 200.0 mg/kg/injection, schedule: Q04DX003 (ip), vehicle: Klucel (hydroxypropylcellulose) (HPC) 101 % of control | dose: 400.0 mg/kg/injection, schedule: Q04DX003 (ip), vehicle: Klucel (hydroxypropylcellulose) (HPC) 109 % of control
